Experiment [1] concerns the target T1, HIV-1 RT associated RNase H (Human immunodeficiency virus type 1 group M subtype B, UniProt P04585).
T1 construct: final concentration of 2.5 nM of the p51/p66 RT heterodimer in the assay; made in house
In words: Gel electrophoretic RNase H assay, inhibition of HIV-1 RT associated RNase H. The class given is biochemical. The following applies: 1.5 nM p51/p66 RT, 100 nM [32P]-RNA/DNA substrate, 37° C., densitometry of undegraded RNA; read-out: IC50 for BBNH obtained with the gel assay. The source says:
The gel electrophoretic assay used 5′-[^32P]-RNA of the sequence 5′-GAU CUG AGC CUG GGA GCU-3′ (SEQ ID NO: 7; identical to that of the FRET RNA, but lacking the 3′-fluorescein), prepared by the transfer of ^32P from [γ-^32P]-ATP in a reaction catalyzed by bacteriophage T4 polynucleotide kinase. This 5′[^32P]-RNA oligonucleotide was annealed to complementary unlabeled DNA of the sequence 5′-AGC TCC CAG GCT CAG ATC-3′ (SEQ ID NO: 8) to form the [^32P]-RNA/DNA hybrid duplex substrate. Aliquots of 100 μl of 50 mM Tris/HCl (pH 8.0, 37° C.), containing 60 mM KCl and 2.5 mM MgCl2, 1.5 nM p51/p66 RT and variable amounts of BBNH inhibitor were added to individual microtubes and incubated at 37° C. for 15 minutes. […] The extent of RNase H activity can be determined quantitatively by densitometric analysis of the time-dependent disappearance of the full-length RNA substrate and/or the appearance of the smaller degradation products. In this experiment, the bands corresponding to the undegraded 18 nucleotide 5′-[^32P]-RNA were quantified by densitometry, using the software UN-SCAN-IT (Silk Scientific, Orem, Utah). The IC50 values for BBNH inhibition of HIV-1 RT associated RNase H activity were calculated from plots of the residual undegraded 5′[^32P]-RNA vs. drug concentration.

The target in experiment [2] is T1, HIV-1 RT associated RNase H. Nature of the experiment: FRET RNase H assay, inhibition of HIV-1 RT associated RNase H. The class given is biochemical. As to conditions: 1.5 nM p51/p66 RT, 100 nM 3'-fluorescein-RNA/5'-DABCYL-DNA substrate, 37° C., 15 min preincubation; read-out: IC50 for BBNH obtained with the FRET assay. The method, then:
Microplate assay protocol for the measurement of RNase H activity using the RNA/DNA hybrid duplex substrate. Reaction assay mixtures contained 5 μl of a stock solution of 2.5 μM RNA/DNA hybrid duplex substrate added to 85 μl of assay buffer (50 mM Tris, pH 8.0, 37° C., containing 60 mM KCl and 2.5 mM MgCl2), prepared in the wells of a 96-well fluorescence microtiter plate, and warmed to 37° C. using the temperature control of the SpectraMax Gemini XS microplate spectrofluorometer (Molecular Devices). Reactions were started by the addition of 5 μl of a solution of recombinant HIV-1 reverse transcriptase (usually providing a final concentration of 2.5 nM of the p51/p66 RT heterodimer in the assay, and mixing using the automatic mixing function of the microplate spectrofluorometer. The reverse transcriptase for use in this assay was prepared as described by Fletcher R S et al, Single step purification of HIV-1 recombinant wild type and mutant reverse transcriptase, Protein Expression and Purification 7:27-32, 1996. The increase in fluorescence signal resulting from the loss of FRET due to the enzymatic hydrolysis of the RNA strand was measured over suitable time intervals (ranging from 3 minutes to 60 minutes), at an excitation wavelength of 490 nm and an emission wavelength of 528 nm, using a cut-off filter of 515 nm. […]

Turning to `CC(C)(C)c1ccc(C(=O)NN=Cc2c(O)ccc3ccccc23)cc1` [BBNH, N-(4-tert-butylbenzoyl)-2-hydroxy-1-naphthaldehyde hydrazone], the IC50 stood at 3 ± 1.2 µM in experiment [1] and 2600 ± 500 nM in experiment [2].

These data come from US7439035B1, “Method of identifying or characterizing a compound that modulates ribonuclease H activity” (McGill University, priority 2001, dated 2008).
